{"source": "patent US4185089A", "about": "“Immunological adjuvant constituted by the p-amino-phenyl derivative of N-acetyl-muramyl-L-alanyl-D-isoglutamine” (Agence Nationale de Valorisation de la Recherche (ANVAR), priority 1976, dated 1980)", "key": {"[1]": {"test_system": "female Hartley guinea pigs", "test": "Adjuvant test in oily phase: specific serum antibody level to ovalbumin", "type": "in vivo, guinea pig", "method": "In these tests, the growth of the specific antibody level of a given antigen when the latter is injected, with or without the adjuvant compound according to the invention, in the midst of a water and oil emulsion was followed.\n(§1) The tests were carried out on female Hartley guinea pigs of 350 g. The administration was done by intradermal injection in the plantar pad of each of the rear paws. The ovalbumin (constituting the antigen) in the dose of 0.5 mg was prepared in 0.1 ml of an emulsion of saline isotonic solution, in an oily phase constituted either by the Freund incomplete adjuvant (FIA), or by the Freund complete adjuvant (FCA) formed by the FIA to which is added 0.1 mg of whole cells of Mycobacterium smegmatis. The compound according to the invention was administered in the dose of 0.1 mg added in the emulsion containing the FIA.\nTwenty one days after the injection, the animals were bled. On the serum collected, the specific antibody content of the ovalbumin was measured by precipitation of the antibody-antigen complex in the equivalence zone. The amount of protein nitrogen contained in this precipitate was evaluated according to the Folin method. These values express the amounts, in micrograms, of nitrogen precipitable by the antigen, per ml of serum."}, "[2]": {"test_system": "female Hartley guinea pigs", "test": "Adjuvant test in oily phase: delayed hypersensitivity cutaneous test to ovalbumin", "type": "in vivo, guinea pig", "method": "as §1\nEighteen days after this immunisation, possible reactions of delayed hypersensibility to the antigen were sought by injecting by the intradermal route 0.005 mg of ovalbumin into the side of the animals, and the reaction at the point of injection was observed 48 hours later. The diameter in mm of the thus provoked reaction was measured."}, "mice": {"test_system": "mice", "test": "Toxicity by intravenous injection in mice", "type": "in vivo", "conditions": "mice aged two months", "excerpt": "The toxicity of the product according to the invention was studied by intravenous injection in mice aged two months."}, "rabbits": {"test_system": "rabbits", "test": "Pyrogenicity on rabbits (French Pharmacopea protocol)", "type": "in vivo", "conditions": "for Rise in temperature °C.: individual animals (batch of three), listed as product according to the invention", "procedure": "The pyrogenic effect of the product according to the invention on rabbits was studied, following the protocol of the French Pharmacopea, 9e edition, II-235. Each test was carried out on a batch of three rabbits. The administration was first done by the subcutaneous route, then by the intravenous route. The results of these tests, that is to say the increase in temperature in the treated animals, were as follows: […]"}}, "note": "“And” between values parts separate entries of the source, which are not always exact repeats. Identical values can stand only once."}
{"smiles": "CC(=O)NC1C(Oc2ccc(N)cc2)OC(CO)C(O)C1O[C@H](C)C(=O)N[C@@H](C)C(=O)N[C@H](CCC(=O)O)C(N)=O", "note": "(stereo partly drawn) [p-amino-phenyl-Mur-NAc-L-Ala-D-iso-Gln, 2-(p-amino-phenyl-2-acetamido-2-deoxy-3-O-D-glucopyranosyl)-D-propionyl-L-alanyl-D-isoglutamine]", "values": [{"measurement": "Effect on level of antibodies to the administered antigen (in words)", "setting": "[1]; administered in oily emulsion", "result": "distinctly facilitates the increase in the level of antibodies"}, {"measurement": "Seric antibodies (nitrogen precipitable by the antigen per ml of serum)", "setting": "[1]; guinea pigs, ovalbumin 0.5 mg intradermal in water-in-oil emulsion, adjuvant 100 μg, serum 21 days after injection, average values", "result": 3500, "unit": "µg/mL"}, {"measurement": "Delayed-type hypersensitivity reaction to the antigen (in words)", "setting": "[2]; administered in oily emulsion", "result": "induces a hypersensitivity reaction of the delayed type"}, {"measurement": "Cutaneous test diameter in mm", "setting": "[2]; guinea pigs, challenge 0.005 mg ovalbumin intradermal 18 days after immunisation, read 48 hours later, adjuvant 100 μg", "result": "19.5±4.5", "unit": "mm"}, {"measurement": "lethal dose (LD50)", "setting": "mice", "result": "very much higher than that of the dosage at which the product manifests its adjuvant properties"}, {"measurement": "Pyrogenicity (in words)", "setting": "rabbits; doses where adjuvant properties are manifested", "result": "apyrogenic"}, {"measurement": "Rise in temperature °C.", "setting": "rabbits; intravenous, 1.0 mg/kg", "result": "0 °C and 0.4 °C and 0.6 °C"}, {"measurement": "Rise in temperature °C.", "setting": "rabbits; sub-cutaneous, 0.100 mg/kg, 0.1 mg/kg", "result": "0 °C (2×) and 0.1 °C"}, {"measurement": "Rise in temperature °C.", "setting": "rabbits; sub-cutaneous, 0.500 mg/kg, 0.5 mg/kg", "result": "0 °C and 0.2 °C and 0.1 °C"}]}
